Five compounds from PMC10254170, “Diastereoselective Synthesis of the Borylated D-Galactose Monosaccharide 3-Boronic-3-Deoxy-D-Galactose and Biological Evaluation in Glycosidase Inhibition and in Cancer for Boron Neutron Capture Therapy (BNCT)” (Molecules, 2023) can be followed below.

Where two headings read alike, the source gives them in different places.

For one test, the system named is almond β-glucosidase. In words: Glycosidase inhibition, almond β-glucosidase. The test is classed as biochemical. The settings on record: for inhibition %: in methanol. An excerpt: (§1) Glycosidase modulation studies need to explore selectivity as well as potency. Our drugs and controls are therefore screened against a panel of glycosidases in methanol (Table 1) to identify the glycosidase-related disease area(s), selectivity profile, and potency of biological action for each drug. The presence of organic boron covalently bonded to the drug structure also grants a reduced toxicity profile. Following the glycosidase inhibition range recommendations, an IC50 value >250 μm denotes weak inhibition, 100–249 μm denotes moderate inhibition, 10–99 μm good inhibition, 0.1–9 μm potent inhibition, and <0.1 μm very potent inhibition. […] Our boronated D-galactose 7 represents a novel lead in glycosidase inhibition.
(§2) The glycosidases screened are the following: rice α-glucosidase, yeast α-glucosidase, Bacillus α-glucosidase, rat intestinal maltase α-glucosidase, almond β-glucosidase, bovine liver β-glucosidase, coffee beans α-galactosidase, bovine liver β-galactosidase, Jack bean α-mannosidase, snail β-mannosidase, Penicillium decumbens α-L-rhamnosidase, bovine kidney α-L-fucosidase, Eschierichia coli β-glucuronidase, bovine liver β-glucuronidase, porcine kidney trehalase, Aspergillus niger amyloglucosidase, and bovine kidney N-acetyl-β-glucosaminidase. The disease areas for each glycosidase are summarized in [1].
(§3) The enzymes α-glucosidase (from yeast), β-glucosidases (from almond and bovine liver), α-galactosidase (from coffee beans), β-galactosidase (from bovine liver), α-mannosidase (from Jack bean), β-mannosidase (from snail), α-L-rhamnosidase (from Penicillium decumbens), α-L-fucosidase (from bovine kidney), trehalase (from porcine kidney), β-glucuronidases (from E. coli and bovine liver), amyloglucosidase (from A. niger), para-nitrophenyl glycosides, and various disaccharides were purchased from Sigma-Aldrich Co.
(§4) Brush border membranes were prepared from the rat small intestine according to the method of Kessler et al. and were assayed at pH 6.8 for rat intestinal maltase using maltose. For rat intestinal maltase, porcine kidney trehalase, and A. niger amyloglucosidase activities, the reaction mixture contained 25 mM maltose and the appropriate amount of enzyme, and the incubations were performed for 10–30 min at 37 °C. The reaction was stopped by heating at 100 °C for 3 min. After centrifugation (600 g; 10 min), the resulting reaction mixture was added to the Glucose CII-test Wako (Wako Pure Chemical Ind., Osaka, Japan). The absorbance at 505 nm was measured to determine the amount of the released D-glucose. Other glycosidase activities were determined using an appropriate para-nitrophenyl glycoside as substrate at the optimum pH of each enzyme. The reaction mixture contained 2 mM of the substrate and the appropriate amount of enzyme. The reaction was stopped by the addition of 400 mM Na2CO3. The released para-nitrophenol was measured spectrometrically at 400 nm. All reactions run in methanol.

A further test concerns yeast α-glucosidase. As to the kind of experiment: Glycosidase inhibition, yeast α-glucosidase. It is filed as biochemical. The conditions noted are these: for inhibition %: in methanol.
From the text: as §1, §2, §3, §4

The target in test [1] is T1, bovine liver β-glucuronidase (Bos taurus, UniProt A3KMY8).
T1 construct: purchased Sigma-Aldrich Co; host or cells: bovine liver
T1 sequence (A3KMY8 1-652): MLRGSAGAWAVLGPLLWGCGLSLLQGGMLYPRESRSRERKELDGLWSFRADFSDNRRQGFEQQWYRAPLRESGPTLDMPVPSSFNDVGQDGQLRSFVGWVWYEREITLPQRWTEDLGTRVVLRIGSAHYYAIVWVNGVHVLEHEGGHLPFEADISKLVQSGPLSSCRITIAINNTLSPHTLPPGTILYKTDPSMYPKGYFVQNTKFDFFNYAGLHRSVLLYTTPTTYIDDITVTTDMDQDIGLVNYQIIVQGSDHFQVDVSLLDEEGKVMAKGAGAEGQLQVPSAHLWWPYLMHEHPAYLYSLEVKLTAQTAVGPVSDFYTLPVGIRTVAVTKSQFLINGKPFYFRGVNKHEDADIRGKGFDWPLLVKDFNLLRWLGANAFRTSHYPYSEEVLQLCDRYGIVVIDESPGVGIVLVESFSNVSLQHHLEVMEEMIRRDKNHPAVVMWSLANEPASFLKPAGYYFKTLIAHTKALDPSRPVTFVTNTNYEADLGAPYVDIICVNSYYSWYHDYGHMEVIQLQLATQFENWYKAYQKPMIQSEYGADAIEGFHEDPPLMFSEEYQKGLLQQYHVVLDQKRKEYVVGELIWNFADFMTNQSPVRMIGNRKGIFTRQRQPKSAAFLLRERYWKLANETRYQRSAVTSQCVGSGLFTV
In words: Glycosidase inhibition, bovine liver β-glucuronidase. The test is classed as biochemical.
From the text: as §1, §2, §3, §4

Another test deals with H460 (lung carcinoma). As to the kind of experiment: Cancer screening (MTT growth inhibition), H460. It is filed as cell-based. The conditions noted are these: 72 h; for Percentage (%) cell growth inhibition: 25 µM of drug; for Percentage (%) cell growth inhibition / inhibition at 25 µM: n = 3, mean ± SEM; for inhibition at 25 µM: NCI-H460, 25 µM of drug, read-out: Percentage (%) cell growth inhibition. As for the experimental part:
(§5) All test agents were prepared as stock solutions (20 mM) in dimethyl sulfoxide (DMSO) and stored at −20 °C. Cell lines used in the study included: HT29 (colorectal carcinoma), U87 and SJ-G2 (glioblastoma), MCF-7 (breast carcinoma), A2780 (ovarian carcinoma), H460 (lung carcinoma), A431 (skin carcinoma), Du145 (prostate carcinoma), BE2-C (neuroblastoma), MiaPaCa-2 (pancreatic carcinoma), SMA560 (spontaneous murine astrocytoma), and ADDP (Cis Res Ovarian), together with one non-tumor-derived normal breast cell line (MCF10A). All cell lines were incubated in a humidified atmosphere with 5 % CO2 at 37 °C. The cancer cell lines were maintained in Dulbecco’s modified Eagle’s medium (DMEM; Sigma, Australia) supplemented with fetal bovine serum (10%), sodium pyruvate (10 mM), penicillin (100 IUmL^−1), streptomycin (100 µg mL^−1), and L-glutamine (2 mM).
(§6) Growth inhibition was determined by plating cells in duplicate in medium (100 µL) at a density of 2500–4000 cells per well in 96-well plates. On day 0 (24 h after plating), when the cells are in logarithmic growth, medium (100 µL) with or without the test agent was added to each well. After 72 h of drug exposure, growth inhibitory effects were evaluated using the (3-(4,5-dimethyltiazol-2-yl)-2,5-diphenyltetrazolium bromide) (MTT) assay and absorbance read at 540 nm. The percentage growth inhibition was calculated at a fixed concentration of 25 µM, based on the difference between the optical density values on day 0 and those at the end of drug exposure. Each data point is the mean ± the standard error of the mean (SEM) calculated from three replicates, which were performed on separate occasions and in separate cell line passages.

Test [2] concerns the target T2, Aspergillus niger amyloglucosidase (Aspergillus niger, UniProt P69328).
T2 construct: purchased Sigma-Aldrich Co
As to the kind of experiment: Glycosidase inhibition, A. niger amyloglucosidase. The test is classed as biochemical.
From the text: as §1, §2, §3, §4

The test system of test [3] is A2780 (ovarian carcinoma). As to the kind of experiment: Cancer screening (MTT growth inhibition), A2780. It is filed as cell-based. The conditions noted are these: 72 h; for Percentage (%) cell growth inhibition: 25 µM of drug; for Percentage (%) cell growth inhibition / inhibition at 25 µM: n = 3, mean ± SEM; for inhibition at 25 µM: A2780, 25 µM of drug, read-out: Percentage (%) cell growth inhibition. On the procedure: as §5, §6

Test [4] addresses T3, coffee beans α-galactosidase (Coffea arabica, UniProt Q42656).
T3 construct: purchased Sigma-Aldrich Co
As to the kind of experiment: Glycosidase inhibition, coffee beans α-galactosidase. The test is classed as biochemical.
From the text: as §1, §2, §3, §4

The mark [5] stands for this setting: at 100 μM, in methanol, read-out: inhibition %.
[6] abbreviates: at 100 μM, read-out: NI: No inhibition.
Setting [7] is: at 1000 μM, in methanol, read-out: inhibition %.
Setting [8] is: at 1000 μM, read-out: NI: No inhibition.

T2 sequence (P69328 25-640): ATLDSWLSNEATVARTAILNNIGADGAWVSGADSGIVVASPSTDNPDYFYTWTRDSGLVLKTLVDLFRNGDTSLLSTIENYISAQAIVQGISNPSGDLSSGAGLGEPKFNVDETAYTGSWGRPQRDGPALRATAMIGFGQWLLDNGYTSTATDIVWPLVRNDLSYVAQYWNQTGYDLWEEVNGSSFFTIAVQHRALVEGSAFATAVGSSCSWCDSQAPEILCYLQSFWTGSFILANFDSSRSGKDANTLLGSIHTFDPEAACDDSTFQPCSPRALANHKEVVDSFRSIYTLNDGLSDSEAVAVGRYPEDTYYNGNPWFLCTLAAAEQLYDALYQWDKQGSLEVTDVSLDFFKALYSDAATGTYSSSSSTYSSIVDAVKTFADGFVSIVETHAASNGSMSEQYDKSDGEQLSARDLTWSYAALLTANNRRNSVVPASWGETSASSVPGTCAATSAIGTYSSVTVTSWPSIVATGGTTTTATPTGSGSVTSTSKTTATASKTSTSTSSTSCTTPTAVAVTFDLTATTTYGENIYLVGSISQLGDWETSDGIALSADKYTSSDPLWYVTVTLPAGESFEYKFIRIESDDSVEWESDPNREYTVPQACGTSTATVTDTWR
T3 sequence (Q42656 16-378): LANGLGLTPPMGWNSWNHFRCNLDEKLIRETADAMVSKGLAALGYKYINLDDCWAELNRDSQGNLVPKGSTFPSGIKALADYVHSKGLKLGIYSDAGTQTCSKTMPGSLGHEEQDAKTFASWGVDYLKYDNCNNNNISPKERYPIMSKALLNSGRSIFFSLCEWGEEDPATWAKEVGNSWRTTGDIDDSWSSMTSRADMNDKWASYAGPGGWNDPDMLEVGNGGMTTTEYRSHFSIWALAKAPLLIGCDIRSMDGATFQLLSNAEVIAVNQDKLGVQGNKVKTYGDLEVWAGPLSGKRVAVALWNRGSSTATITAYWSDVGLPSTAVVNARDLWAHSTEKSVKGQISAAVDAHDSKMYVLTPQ

Turning to Borocaptate sodium [BSH], the “NI: No inhibition” value (with almond β-glucosidase (at 1000 μM); in the test with yeast α-glucosidase (at 1000 μM); in test [1] (at 1000 μM)) was “NI (No inhibition (less than 50% inhibition at 1000 μM))” each time. Also, the inhibition % worked out at 0% in the test with almond β-glucosidase (at 1000 μM); 6.9% in the test on yeast α-glucosidase (at 1000 μM); 19.6% in test [1] (at 1000 μM, in methanol); 0% in test [2] (at 1000 μM, in methanol); 12.3% in test [4] (at 1000 μM, in methanol). Also, the figures for the “Percentage (%) cell growth inhibition” value (in the test on H460 (lung carcinoma); in test [3]) were 8 ± 2% and 2 ± 5%, respectively.
On to `N[C@@H](Cc1ccc(B(O)O)cc1)C(=O)O` [BPA, 4-borono-L-phenylalanine], for which the “NI: No inhibition” value in the test on almond β-glucosidase (at 100 μM) and in the test on yeast α-glucosidase (at 100 μM) was “NI (No inhibition (less than 50% inhibition at 100 μM))” in each case. Also, the inhibition % in the test with almond β-glucosidase (at 100 μM) and with yeast α-glucosidase (at 100 μM) was 0% in each case. The inhibition at 100 µM in test [1] (setting [5]) was 7.4%; in test [1] (setting [6]) it was less than 50%; in test [2] (setting [5]), 0%; in test [2] (setting [6]), less than 50%; in test [4] (setting [5]), 4.3%; in test [4] (setting [6]), less than 50%. Further, the inhibition at 25 µM with H460 (lung carcinoma) (Homo sapiens) was 7 ± 8%; in test [3] (Homo sapiens) it was 4 ± 1%.
Consider `CC1(C)OCC(C2OC3OC(C)(C)OC3C2[B-]23OCC[NH+]2CCO3)O1` [Compound 6, 3-Deoxy-3-Boronodiethanolamine-1,2:5,6-Di-O-isopropylidene-α-D-galactofuranose], for which the “NI: No inhibition” value in the test with almond β-glucosidase (at 100 μM) and in the test with yeast α-glucosidase (at 100 μM) was “NI (No inhibition (less than 50% inhibition at 100 μM))” throughout. For the same compound, the inhibition % in the test on almond β-glucosidase (at 100 μM) was 0.3%; in the test on yeast α-glucosidase (at 100 μM), 0%. In addition, the inhibition at 100 µM in test [1] (setting [5]) is 12.4%; in test [1] (setting [6]), less than 50%; in test [2] (setting [5]), 0%; in test [2] (setting [6]), less than 50%; in test [4] (setting [5]), 0.5%; in test [4] (setting [6]) it was less than 50%. Besides, the inhibition at 25 µM in the test with H460 (lung carcinoma) (Homo sapiens) is 9 ± 2%; in test [3] (Homo sapiens) it was 10 ± 5%.
For the compound `OCC1OC(O)C(O)C(B(O)O)C1O` [Compound 7, 3-Boronic-3-Deoxy-D-galactose], the “NI: No inhibition” value with almond β-glucosidase (at 1000 μM) and in the test with yeast α-glucosidase (at 1000 μM) was “NI (No inhibition (less than 50% inhibition at 1000 μM))” in each case. For the same compound, the inhibition % with almond β-glucosidase (at 1000 μM) is 1.3%; in the test with yeast α-glucosidase (at 1000 μM), 12.1%. For the same compound, the inhibition at 1000 µM in test [1] (setting [7]) is 32.4%; in test [1] (setting [8]), less than 50%; in test [2] (setting [7]), 1.5%; in test [2] (setting [8]) it was less than 50%; in test [4] (setting [7]) it was 0%; in test [4] (setting [8]), less than 50%. The inhibition at 25 µM in the test with H460 (lung carcinoma) (Homo sapiens) was determined as 4 ± 1%; in test [3] (Homo sapiens), 8 ± 3%. In addition, the GI50 in the test on H460 (lung carcinoma) (Homo sapiens, NCI-H460, dose response, read-out: GI50 = Concentration that inhibits cell growth by 50%) is greater than 50 µM; in test [3] (Homo sapiens, A2780, dose response, read-out: GI50 = Concentration that inhibits cell growth by 50%), greater than 50 µM.
For the compound `N[C@@H](Cc1ccc(B(O)O)cc1)C(=O)O` [^10B-BPA], the “NI: No inhibition” value (with almond β-glucosidase (at 100 μM); in the test with yeast α-glucosidase (at 100 μM); in test [1] (at 100 μM)) was “NI (No inhibition (less than 50% inhibition at 100 μM))” each time. Moreover, the inhibition % is 0% in the test on almond β-glucosidase (at 100 μM); 0% with yeast α-glucosidase (at 100 μM); 0% in test [1] (at 100 μM, in methanol); 0% in test [2] (at 100 μM, in methanol); 1.2% in test [4] (at 100 μM, in methanol). The “Percentage (%) cell growth inhibition” value in the test with H460 (lung carcinoma) is reported as 8 ± 5%; in test [3], 8 ± 4%.

Broadly, the inhibition is how much of the control response was suppressed.
